Experimental data as given in ChEMBL document CHEMBL1152215, “6-[2-(4-Aryl-1-piperazinyl)ethyl]-2H-1,4-benzoxazin-3(4H)-ones: dual-acting 5-HT1 receptor antagonists and serotonin reuptake inhibitors” (Bioorg Med Chem Lett, 2008).

Assays:
[1] = molecular target: T1, 5-hydroxytryptamine receptor 1D (Homo sapiens, UniProt P28221); experiment: Intrinsic activity at human 5HT1D receptor expressed in CHO cells by [S35]GTPgammaS binding assay relative to serotonin; format: functional, cell-based
[2] = molecular target: T2, 5-hydroxytryptamine receptor 1B (Homo sapiens, UniProt P28222); experiment: Intrinsic activity at human 5HT1B receptor expressed in CHO cells by [S35]GTPgammaS binding assay relative to serotonin; format: functional, cell-based
[3] = molecular target: T3, 5-hydroxytryptamine receptor 1A (Homo sapiens) (UniProt P08908); experiment: Intrinsic activity at human 5HT1A receptor expressed in CHO cells by [S35]GTPgammaS binding assay relative to serotonin; format: functional, cell-based
T3 sequence (whole entry): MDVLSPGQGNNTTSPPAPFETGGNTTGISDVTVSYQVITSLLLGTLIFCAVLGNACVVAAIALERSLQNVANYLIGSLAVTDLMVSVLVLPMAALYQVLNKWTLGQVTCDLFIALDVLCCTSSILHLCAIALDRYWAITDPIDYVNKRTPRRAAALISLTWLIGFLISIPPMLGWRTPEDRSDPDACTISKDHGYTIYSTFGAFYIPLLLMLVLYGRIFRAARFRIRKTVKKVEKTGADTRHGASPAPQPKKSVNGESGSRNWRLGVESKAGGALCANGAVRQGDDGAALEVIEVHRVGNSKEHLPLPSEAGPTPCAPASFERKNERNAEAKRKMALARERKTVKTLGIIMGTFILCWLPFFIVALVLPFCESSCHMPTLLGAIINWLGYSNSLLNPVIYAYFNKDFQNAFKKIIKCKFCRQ

[4] = molecular target: Sodium-dependent serotonin transporter (Homo sapiens, UniProt P31645); experiment: Displacement of [3H]citalopram from human SerT expressed pig LLCPK cells; format: cell-based
[5] = molecular target: T1, 5-hydroxytryptamine receptor 1D; experiment: Displacement of [3H]5HT from human 5HT1D receptor expressed in CHO cells; format: cell-based
[6] = molecular target: T4, 5-hydroxytryptamine receptor 1A (Homo sapiens, UniProt P08908); experiment: Displacement of [3H]WAY-100635 from human 5HT1A receptor expressed in CHO cells; format: cell-based
T4 sequence (P08908 whole entry): T3 sequence (whole entry)

[7] = molecular target: T2, 5-hydroxytryptamine receptor 1B; experiment: Displacement of [3H]5HT from human 5HT1B receptor expressed in CHO cells; format: cell-based
Liver microsomes [8] = experiment: Metabolic stability in rat liver microsomes assessed as intrinsic clearance; format: ADME, Microsome
[9] = Blood Clearance in rat at 0.5 mg/kg, iv and 1 mg/kg, po; format: ADME, organism-based; details: whole blood
[10] = Oral bioavailability in rat at 1 mg/kg; format: ADME, organism-based; details: in vivo
[11] = Half life in rat; format: ADME, organism-based; details: in vivo
[12] = Volume of distribution in rat; format: ADME, organism-based; details: in vivo, read-out: Vdss
Liver microsomes [13] = experiment: Metabolic stability in human liver microsomes assessed as intrinsic clearance; format: ADME, Microsome
[14] = Ratio of drug level in brain to blood in rat; format: ADME, organism-based; details: brain / whole blood

T1 sequence (P28221 whole entry): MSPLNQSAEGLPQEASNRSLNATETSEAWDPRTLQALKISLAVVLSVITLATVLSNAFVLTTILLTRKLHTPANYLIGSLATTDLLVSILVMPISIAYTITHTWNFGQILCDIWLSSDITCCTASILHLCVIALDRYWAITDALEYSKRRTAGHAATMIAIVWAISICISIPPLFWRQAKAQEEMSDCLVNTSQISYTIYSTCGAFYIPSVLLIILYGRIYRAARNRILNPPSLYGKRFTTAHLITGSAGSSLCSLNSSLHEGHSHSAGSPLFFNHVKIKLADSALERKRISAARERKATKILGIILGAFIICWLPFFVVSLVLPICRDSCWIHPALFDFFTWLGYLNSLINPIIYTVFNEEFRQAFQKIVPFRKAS
T2 sequence (P28222 whole entry): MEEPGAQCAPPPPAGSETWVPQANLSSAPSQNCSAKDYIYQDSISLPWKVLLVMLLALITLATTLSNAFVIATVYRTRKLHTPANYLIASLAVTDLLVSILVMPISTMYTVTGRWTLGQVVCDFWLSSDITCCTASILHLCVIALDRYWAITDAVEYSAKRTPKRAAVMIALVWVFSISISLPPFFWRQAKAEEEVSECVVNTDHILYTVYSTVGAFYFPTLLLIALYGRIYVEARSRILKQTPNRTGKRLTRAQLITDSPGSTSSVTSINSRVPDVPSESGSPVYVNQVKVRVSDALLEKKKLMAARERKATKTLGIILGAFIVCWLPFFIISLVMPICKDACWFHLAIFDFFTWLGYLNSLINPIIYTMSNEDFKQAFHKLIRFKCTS
Chain of Sodium-dependent serotonin transporter (P31645 whole entry): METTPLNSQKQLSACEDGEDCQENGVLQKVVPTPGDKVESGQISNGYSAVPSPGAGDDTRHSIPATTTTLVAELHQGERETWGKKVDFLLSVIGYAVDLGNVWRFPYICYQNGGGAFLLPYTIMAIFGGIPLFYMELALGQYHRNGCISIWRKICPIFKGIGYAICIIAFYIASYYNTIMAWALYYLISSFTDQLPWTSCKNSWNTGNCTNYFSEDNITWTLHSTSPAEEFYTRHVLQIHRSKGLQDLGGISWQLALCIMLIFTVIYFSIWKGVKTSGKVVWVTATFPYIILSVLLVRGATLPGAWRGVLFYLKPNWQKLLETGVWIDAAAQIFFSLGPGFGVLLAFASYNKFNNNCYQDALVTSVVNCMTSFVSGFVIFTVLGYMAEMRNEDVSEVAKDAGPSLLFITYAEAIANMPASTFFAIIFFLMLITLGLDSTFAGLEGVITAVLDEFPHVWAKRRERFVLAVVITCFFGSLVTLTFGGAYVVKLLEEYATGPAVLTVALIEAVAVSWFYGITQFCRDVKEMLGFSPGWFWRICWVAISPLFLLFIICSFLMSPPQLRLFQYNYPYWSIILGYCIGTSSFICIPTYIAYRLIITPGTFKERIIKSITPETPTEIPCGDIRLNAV

| SMILES | Intrinsic activity [1] | Intrinsic activity [2] | Intrinsic activity [3] | Ki [4] | Ki [5] | Ki [6] | Ki [7] | CL (Liver microsomes [8]) | clearance [9] | bioavailability [10] | half-life [11] | Vd [12] | CL (Liver microsomes [13]) | Kp [14] |
| --- | --- | --- | --- | --- | --- | --- | --- | --- | --- | --- | --- | --- | --- | --- |
| Cc1ccc2c(N3CCN(CCc4ccc5c(c4)NC(=O)CO5)CC3)cc(Cl)cc2n1 | 0 | 0 | 0.4 | 0.794 nM | 0.158 nM | 0.316 nM | 0.501 nM |  |  |  |  |  |  |  |
| CCN1C(=O)COc2ccc(CCN3CCN(c4cccc5nc(C)ccc45)CC3)cc21 | 0 | 0 | 0 | 79.4 nM | 0.398 nM | 0.501 nM | 0.794 nM |  |  |  |  |  |  |  |
| O=C1COc2ccc(CCN3CCN(c4cccc5nc(-c6ccccc6)ccc45)CC3)cc2N1 | 0 | 0.2 | 0.4 | 0.158 nM | 12.6 nM | 0.631 nM | 0.316 nM |  |  |  |  |  |  |  |
| Cc1ccc2c(N3CCN(CCc4ccc5c(c4)NC(=O)CO5)CC3C)cccc2n1 (centres undefined) | 0 | 0.1 | 0.2 | 10 nM | 0.316 nM | 0.794 nM | 2 nM |  |  |  |  |  |  |  |
| Cc1ccc2c(N3CCN(CCc4cc5c(cc4F)OCC(=O)N5)CC3)cccc2n1 | 0 | 0.1 | 0.2 | 0.794 nM | 0.251 nM | 0.251 nM | 1.58 nM |  |  |  |  |  |  |  |
| Cc1ccc2c(N3CCN(CCc4ccc5c(c4)NC(=O)CO5)CC3)cc(F)cc2n1 | 0 | 0 | 0 | 0.794 nM | 0.2 nM | 2.51 nM | 2.51 nM |  |  |  |  |  |  |  |
| Cc1ccc2c(N3CCN(CCc4cc(F)c5c(c4)NC(=O)CO5)CC3)cccc2n1 | 0 | 0.3 | 0 | 1.26 nM | 0.2 nM | 1.26 nM | 1 nM |  |  |  |  |  |  |  |
| Cc1ccc2c(N3CCN(CCc4ccc5c(c4)NC(=O)CO5)CC3)ccc(Cl)c2n1 | 0 | 0.3 | 0.7 | 1.58 nM | 0.2 nM | 3.98 nM | 0.501 nM |  |  |  |  |  |  |  |
| Cc1cc2c(N3CCN(CCc4ccc5c(c4)NC(=O)CO5)CC3)cccc2[nH]1 | 0.4 | 0.4 | 0.3 | 6.31 nM | 0.2 nM | 3.16 nM | 0.398 nM |  |  |  |  |  |  |  |
| Cc1ccc2c(N3CCN(CCc4ccc5c(c4)NC(=O)CO5)[C@H](C)C3)cccc2n1 | 0 | 0 | 0 | 0.794 nM | 0.501 nM | 1.58 nM | 7.94 nM |  |  |  |  |  |  |  |
| Cc1cc(N2CCN(CCc3ccc4c(c3)NC(=O)CO4)CC2)c2ccc(C)nc2c1 | 0.3 | 0.3 | 1.2 | 15.8 nM | 0.398 nM | 0.126 nM | 0.631 nM |  |  |  |  |  |  |  |
| Cc1ccc2c(N3CCN(CCc4ccc5c(c4)N(C)C(=O)CO5)CC3)cccc2n1 |  | 0.2 | 0.3 |  |  |  |  | 0.8 mL/min/g | 8 mL/min/kg | 59% | 4.4 h | 2.7 L/kg | 1.1 mL/min/g |  |
| Cc1ncc2c(N3CCN(CCc4ccc5c(c4)NC(=O)CO5)CC3)cccc2n1 | 0 | 0.2 | 0.6 | 2 nM | 0.316 nM | 0.398 nM | 0.631 nM |  | 4 mL/min/kg | 67% | 2.8 h | 1.1 L/kg |  | 0.3 |
| CC1(C)Cc2cccc(N3CCN(CCc4ccc5c(c4)NC(=O)CO5)CC3)c2O1 | 0.5 | 0.6 | 1.2 | 2.51 nM | 0.158 nM | 0.501 nM | 0.631 nM |  |  |  |  |  |  |  |
| Cc1ccc2c(N3CCN(CCc4ccc5c(c4F)NC(=O)CO5)CC3)cccc2n1 | 0 | 0.2 | 0.3 | 5.01 nM | 0.398 nM | 0.251 nM | 0.398 nM |  |  |  |  |  |  |  |
| O=C1COc2ccc(CCN3CCN(c4cccc5cccnc45)CC3)cc2N1 | 0.7 | 0.7 | 0.8 | 10 nM | 0.251 nM | 1.58 nM | 31.6 nM |  |  |  |  |  |  |  |
| Cc1ccc2c(N3CCN(CCc4ccc5c(c4)NC(=O)CO5)[C@@H](C)C3)cccc2n1 | 0 | 0 | 0 | 0.398 nM | 1.58 nM | 3.16 nM | 1.26 nM |  |  |  |  |  |  |  |
| Cc1ccc2c(N3C[C@H]4C[C@@H]3CN4CCc3ccc4c(c3)NC(=O)CO4)cccc2n1 | 0 | 0.2 | 0.8 | 3.98 nM | 25.1 nM | 126 nM | 0.794 nM |  |  |  |  |  |  |  |
| O=C1COc2ccc(CCN3CCN(c4nccc5ccccc45)CC3)cc2N1 | 0.4 | 0.5 | 1 | 0.794 nM | 0.251 nM | 100 nM | 0.794 nM |  |  |  |  |  |  |  |
| Cc1ccc2c(N3CCN(CCc4ccc5c(c4)NC(=O)CO5)CC3)ccc(F)c2n1 | 0 | 0 | 0.2 | 3.98 nM | 0.316 nM | 0.251 nM | 126 nM |  |  |  |  |  |  |  |
| Cc1ccc2c(N3CCN(CCc4ccc5c(c4)NC(=O)CO5)CC3)cccc2n1 |  | 0.1 | 0.2 |  |  |  |  | 1.3 mL/min/g | 5 mL/min/kg | 68% | 5.1 h | 2 L/kg | < 0.5 mL/min/g |  |
